In patent US12398107B2, “Fungicidal nitroanilino substituted pyrazoles” (FMC Corporation, priority 2018, dated 2025):

Assays:
Type in all cases: in vivo
[1] = test system: Puccinia recondita f. sp. tritici; assay: Test B: wheat leaf rust, preventive spray on wheat seedlings; details: 100 = 100% disease control, 0 = no control relative to controls; for pest or weed control at 50 ppm / Test B disease control rating (wheat leaf rust): 50 ppm
Outline: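 Compounds in acetone/water (50/50) with 250 ppm PEG400, sprayed to run-off on wheat seedlings at stated ppm; inoculated next day with P. recondita spores. Held 24 h saturated at 20° C., then 7 days in growth chamber at 20° C.; rating 0–100 = % disease control vs controls.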

Botrytis cinerea = assay: Test E: tomato Botrytis, preventive spray on tomato seedlings; details: 100 = 100% disease control, 0 = no control; for pest or weed control at 50 ppm / Test E disease control rating (tomato Botrytis): 50 ppm
Outline: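 Tomato seedlings sprayed to run-off with compound (ppm) in acetone/water with 250 ppm PEG400, then inoculated next day with B. cinerea spores. Held 48 h at 20 °C in saturated atmosphere, then 3 days at 24 °C. Visual rating 0–100% disease control relative to untreated controls.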

Alternaria solani = assay: Test F: tomato early blight, preventive spray on tomato seedlings; details: 100 = 100% disease control, 0 = no control; for pest or weed control at 50 ppm / Test F disease control rating (tomato early blight): 50 ppm
Outline: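 Compounds in acetone/water (50/50) with 250 ppm PEG400, dosed in ppm, sprayed to run-off on tomato seedlings; next day inoculated with A. solani spores. Held 48 h saturated at 27° C, then 3 days at 20° C; visual rating 0–100% disease control relative to controls.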

[2] = test system: Blumeria graminis f. sp. tritici; assay: Test C: wheat powdery mildew, preventive spray on wheat seedlings; details: rated after 8 days, 100 = 100% disease control, 0 = no control; for pest or weed control at 50 ppm / Test C disease control rating (wheat powdery mildew): 50 ppm
Outline: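 Compound dissolved in acetone (3% of final volume), then suspended in 50/50 acetone/water with 250 ppm PEG400 and sprayed to run-off on wheat seedlings. Inoculated next day with B. graminis f. sp. tritici spore dust, kept 8 days at 20° C; visual rating, 100 = full control, 0 = none, relative to controls.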

Phakopsora pachyrhizi = assay: Test D: Asian soybean rust, preventive spray on soybean seedlings; details: 100 = 100% disease control, 0 = no control; for pest or weed control at 50 ppm / Test D disease control rating (Asian soybean rust): 50 ppm
Outline: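 Soybean seedlings sprayed to run-off with compound suspension (ppm, in 50/50 acetone/water with 250 ppm PEG400), inoculated next day with P. pachyrhizi spores, held 24 h saturated at 22°C then 8 days at 22°C. Visual rating 0-100% disease control relative to controls.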

Septoria tritici = assay: Test A: wheat leaf blotch, preventive spray on wheat seedlings; details: 100 = 100% disease control, 0 = no control relative to controls; for pest or weed control at 50 ppm / Test A disease control rating (wheat leaf blotch): 50 ppm
Outline: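 Compounds were suspended in acetone/water (50/50) with 250 ppm PEG400 and sprayed to run-off on wheat seedlings. The next day the seedlings were inoculated with Septoria tritici spores, held 48 h at 24 °C in saturated humidity, then 17 days at 20 °C. Disease control was rated 0–100 relative to controls.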

[3] = read-out: Test B disease control rating (wheat leaf rust)
[4] = Botrytis cinerea, read-out: Test E disease control rating (tomato Botrytis)
[5] = Alternaria solani, read-out: Test F disease control rating (tomato early blight)
[6] = Blumeria graminis, 192 h, read-out: Test C disease control rating (wheat powdery mildew)
[7] = Phakopsora pachyrhizi, read-out: Test D disease control rating (Asian soybean rust)
[8] = Zymoseptoria tritici, read-out: Test A disease control rating (wheat leaf blotch)

## Cc1nn(C)c(Nc2c(Cl)cc(F)cc2[N+](=O)[O-])c1-c1ccc(C#N)cc1Cl [Compound 18, 3-chloro-4-[5-[(2-chloro-4-fluoro-6-nitrophenyl)amino]-1,3-dimethyl-1H-pyrazol-4-yl]benzonitrile]
[1]; [3]
  pest or weed control at 50 ppm: 100%
Botrytis cinerea; [4]
  pest or weed control at 50 ppm: 100%
Alternaria solani; [5]
  pest or weed control at 50 ppm: 99%
[2]; [6]
  pest or weed control at 50 ppm: 89%
Phakopsora pachyrhizi; [7]
  pest or weed control at 50 ppm: 92%
Septoria tritici; [8]
  pest or weed control at 50 ppm: 100%

## COc1cc(F)c(-c2c(C)nn(C)c2Nc2c(F)cccc2[N+](=O)[O-])c(F)c1 [Compound 70]
[1]
  Test B disease control rating (wheat leaf rust): 100%
Botrytis cinerea
  Test E disease control rating (tomato Botrytis): 99%
Alternaria solani
  Test F disease control rating (tomato early blight): 99%
[2]
  Test C disease control rating (wheat powdery mildew): 99%
Phakopsora pachyrhizi
  Test D disease control rating (Asian soybean rust): 84%
Septoria tritici
  Test A disease control rating (wheat leaf blotch): 100%

## Cc1nn(C)c(Nc2ccc(Br)cc2[N+](=O)[O-])c1-c1ccc(F)cc1Cl [Compound 91]
[1]
  Test B disease control rating (wheat leaf rust): 88%
Botrytis cinerea
  Test E disease control rating (tomato Botrytis): 99%
Alternaria solani
  Test F disease control rating (tomato early blight): 26%
[2]
  Test C disease control rating (wheat powdery mildew): 84%
Phakopsora pachyrhizi
  Test D disease control rating (Asian soybean rust): 0%
Septoria tritici
  Test A disease control rating (wheat leaf blotch): 99%

## Cc1nn(C)c(Nc2ccccc2[N+](=O)[O-])c1-c1c(F)cc(Cl)cc1F [Compound 168]
[1]
  Test B disease control rating (wheat leaf rust): 74%
Botrytis cinerea
  Test E disease control rating (tomato Botrytis): 99%
Alternaria solani
  Test F disease control rating (tomato early blight): 40%
[2]
  Test C disease control rating (wheat powdery mildew): 97%
Phakopsora pachyrhizi
  Test D disease control rating (Asian soybean rust): 0%
Septoria tritici
  Test A disease control rating (wheat leaf blotch): 100%

## Cc1nn(C)c(Nc2c(Cl)cccc2[N+](=O)[O-])c1-c1c(F)cccc1F [Compound 77]
[1]
  Test B disease control rating (wheat leaf rust): 100%
Botrytis cinerea
  Test E disease control rating (tomato Botrytis): 72%
Alternaria solani
  Test F disease control rating (tomato early blight): 9%
[2]
  Test C disease control rating (wheat powdery mildew): 95%
Phakopsora pachyrhizi
  Test D disease control rating (Asian soybean rust): 73%
Septoria tritici
  Test A disease control rating (wheat leaf blotch): 100%

## Cc1nn(C)c(Nc2c(F)cc(Cl)cc2[N+](=O)[O-])c1-c1c(F)cccc1F [Compound 98]
[1]
  Test B disease control rating (wheat leaf rust): 97%
Botrytis cinerea
  Test E disease control rating (tomato Botrytis): 99%
Alternaria solani
  Test F disease control rating (tomato early blight): 98%
[2]
  Test C disease control rating (wheat powdery mildew): 93%
Phakopsora pachyrhizi
  Test D disease control rating (Asian soybean rust): 0%
Septoria tritici
  Test A disease control rating (wheat leaf blotch): 100%

## Cc1nn(C)c(Nc2c(Cl)cc(Cl)cc2[N+](=O)[O-])c1-c1ccc(C#N)cc1Cl [Compound 116]
[1]
  Test B disease control rating (wheat leaf rust): 99%
Botrytis cinerea
  Test E disease control rating (tomato Botrytis): 63%
Alternaria solani
  Test F disease control rating (tomato early blight): 82%
[2]
  Test C disease control rating (wheat powdery mildew): 56%
Phakopsora pachyrhizi
  Test D disease control rating (Asian soybean rust): 0%
Septoria tritici
  Test A disease control rating (wheat leaf blotch): 99%

## CCc1nn(C)c(Nc2c(F)cccc2[N+](=O)[O-])c1-c1ccc(F)cc1Cl [Compound 72, 4-(2-chloro-4-fluorophenyl)-N-(2-fluoro-6-nitrophenyl)-3-ethyl-1-methyl-1H-pyrazol-5-amine]
[1]; 10 ppm, read-out: Test B disease control rating (wheat leaf rust)
  pest or weed control at 10 ppm: 85%
[1]; [3]
  pest or weed control at 50 ppm: 100%
Botrytis cinerea; Botrytis cinerea, 10 ppm, read-out: Test E disease control rating (tomato Botrytis)
  pest or weed control at 10 ppm: 98%
Botrytis cinerea; [4]
  pest or weed control at 50 ppm: 98%
Alternaria solani; Alternaria solani, 10 ppm, read-out: Test F disease control rating (tomato early blight)
  pest or weed control at 10 ppm: 63%
Alternaria solani; [5]
  pest or weed control at 50 ppm: 99%
[2]; Blumeria graminis, 192 h, 10 ppm, read-out: Test C disease control rating (wheat powdery mildew)
  pest or weed control at 10 ppm: 81%
[2]; [6]
  pest or weed control at 50 ppm: 99%
Phakopsora pachyrhizi; Phakopsora pachyrhizi, 10 ppm, read-out: Test D disease control rating (Asian soybean rust)
  pest or weed control at 10 ppm: 12%
Phakopsora pachyrhizi; [7]
  pest or weed control at 50 ppm: 31%
Septoria tritici; Zymoseptoria tritici, 10 ppm, read-out: Test A disease control rating (wheat leaf blotch)
  pest or weed control at 10 ppm: 100%
Septoria tritici; [8]
  pest or weed control at 50 ppm: 100%

## Cc1nn(C)c(Nc2c(F)cccc2[N+](=O)[O-])c1-c1c(F)cccc1Cl [Compound 25]
[1]
  Test B disease control rating (wheat leaf rust): 100%
Botrytis cinerea
  Test E disease control rating (tomato Botrytis): 100%
Alternaria solani
  Test F disease control rating (tomato early blight): 98%
[2]
  Test C disease control rating (wheat powdery mildew): 99%
Phakopsora pachyrhizi
  Test D disease control rating (Asian soybean rust): 98%
Septoria tritici
  Test A disease control rating (wheat leaf blotch): 100%

## Cc1cc(Cl)c(Nc2c(-c3ccc(F)cc3Cl)c(C)nn2C)c([N+](=O)[O-])c1 [Compound 31]
[1]
  Test B disease control rating (wheat leaf rust): 100%
Botrytis cinerea
  Test E disease control rating (tomato Botrytis): 99%
Alternaria solani
  Test F disease control rating (tomato early blight): 76%
[2]
  Test C disease control rating (wheat powdery mildew): 100%
Phakopsora pachyrhizi
  Test D disease control rating (Asian soybean rust): 98%
Septoria tritici
  Test A disease control rating (wheat leaf blotch): 100%

## Cc1cc(F)c(Nc2c(-c3ccc(F)cc3Br)c(C)nn2C)c([N+](=O)[O-])c1 [Compound 40]
[1]
  Test B disease control rating (wheat leaf rust): 100%
Botrytis cinerea
  Test E disease control rating (tomato Botrytis): 98%
Alternaria solani
  Test F disease control rating (tomato early blight): 100%
[2]
  Test C disease control rating (wheat powdery mildew): 100%
Phakopsora pachyrhizi
  Test D disease control rating (Asian soybean rust): 82%
Septoria tritici
  Test A disease control rating (wheat leaf blotch): 100%

## Cc1nn(C)c(Nc2cc(F)c(F)cc2[N+](=O)[O-])c1-c1ccc(F)cc1Cl [Compound 32]
[1]
  Test B disease control rating (wheat leaf rust): 85%
Botrytis cinerea
  Test E disease control rating (tomato Botrytis): 99%
Alternaria solani
  Test F disease control rating (tomato early blight): 0%
[2]
  Test C disease control rating (wheat powdery mildew): 56%
Phakopsora pachyrhizi
  Test D disease control rating (Asian soybean rust): 98%
Septoria tritici
  Test A disease control rating (wheat leaf blotch): 93%

## CCc1nn(C)c(Nc2c(F)cc(C)cc2[N+](=O)[O-])c1-c1ccc(F)cc1Cl [Compound 137]
[1]
  Test B disease control rating (wheat leaf rust): 100%
Botrytis cinerea
  Test E disease control rating (tomato Botrytis): 99%
Alternaria solani
  Test F disease control rating (tomato early blight): 99%
[2]
  Test C disease control rating (wheat powdery mildew): 100%
Phakopsora pachyrhizi
  Test D disease control rating (Asian soybean rust): 91%
Septoria tritici
  Test A disease control rating (wheat leaf blotch): 100%

## COc1cc(Cl)c(Nc2c(-c3ccc(F)cc3Cl)c(C)nn2C)c([N+](=O)[O-])c1 [Compound 80]
[1]
  Test B disease control rating (wheat leaf rust): 100%
Botrytis cinerea
  Test E disease control rating (tomato Botrytis): 95%
Alternaria solani
  Test F disease control rating (tomato early blight): 98%
[2]
  Test C disease control rating (wheat powdery mildew): 97%
Phakopsora pachyrhizi
  Test D disease control rating (Asian soybean rust): 50%
Septoria tritici
  Test A disease control rating (wheat leaf blotch): 100%

## Cc1nn(C)c(Nc2ccccc2[N+](=O)[O-])c1-c1ccc(F)cc1Br [Compound 139]
[1]
  Test B disease control rating (wheat leaf rust): 86%
Botrytis cinerea
  Test E disease control rating (tomato Botrytis): 100%
Alternaria solani
  Test F disease control rating (tomato early blight): 33%
[2]
  Test C disease control rating (wheat powdery mildew): 76%
Phakopsora pachyrhizi
  Test D disease control rating (Asian soybean rust): 0%
Septoria tritici
  Test A disease control rating (wheat leaf blotch): 98%

## COc1cc(F)c(Nc2c(-c3ccc(F)cc3F)c(C)nn2C)c([N+](=O)[O-])c1 [Compound 57, 4-(2,4-difluorophenyl)-N-(2-fluoro-4-methoxy-6-nitrophenyl)-1,3-dimethyl-1H-pyrazol-5-amine]
[1]; [3]
  pest or weed control at 50 ppm: 100%
Botrytis cinerea; [4]
  pest or weed control at 50 ppm: 100%
Alternaria solani; [5]
  pest or weed control at 50 ppm: 100%
[2]; [6]
  pest or weed control at 50 ppm: 100%
Phakopsora pachyrhizi; [7]
  pest or weed control at 50 ppm: 96%
Septoria tritici; [8]
  pest or weed control at 50 ppm: 100%

## COc1ccc(Nc2c(-c3ccc(F)cc3Br)c(C)nn2C)c([N+](=O)[O-])c1 [Compound 52]
[1]
  Test B disease control rating (wheat leaf rust): 100%
Botrytis cinerea
  Test E disease control rating (tomato Botrytis): 99%
Alternaria solani
  Test F disease control rating (tomato early blight): 94%
[2]
  Test C disease control rating (wheat powdery mildew): 90%
Phakopsora pachyrhizi
  Test D disease control rating (Asian soybean rust): 59%
Septoria tritici
  Test A disease control rating (wheat leaf blotch): 100%

## Cc1nn(C)c(Nc2c(F)cc(F)cc2[N+](=O)[O-])c1-c1ccc(F)cc1F [Compound 58]
[1]
  Test B disease control rating (wheat leaf rust): 100%
Botrytis cinerea
  Test E disease control rating (tomato Botrytis): 99%
Alternaria solani
  Test F disease control rating (tomato early blight): 99%
[2]
  Test C disease control rating (wheat powdery mildew): 99%
Phakopsora pachyrhizi
  Test D disease control rating (Asian soybean rust): 36%
Septoria tritici
  Test A disease control rating (wheat leaf blotch): 100%
